Legend:
[1] = target: T1, AHR (Homo sapiens, UniProt P35869); test: In vitro assay 2: agonism in human cell line (transactivation assay, U87 cells, DRE firefly luciferase reporter); assay type: cell-based; parameters: host or cells: U87 glioblastoma cells, stably transfected with DRE firefly luciferase and renilla reporter constructs; conditions: no kynurenic acid, 20 hours, read-out: Assay 2: AHR-luc Hum Agonism IC50
T1 sequence (P35869 11-848): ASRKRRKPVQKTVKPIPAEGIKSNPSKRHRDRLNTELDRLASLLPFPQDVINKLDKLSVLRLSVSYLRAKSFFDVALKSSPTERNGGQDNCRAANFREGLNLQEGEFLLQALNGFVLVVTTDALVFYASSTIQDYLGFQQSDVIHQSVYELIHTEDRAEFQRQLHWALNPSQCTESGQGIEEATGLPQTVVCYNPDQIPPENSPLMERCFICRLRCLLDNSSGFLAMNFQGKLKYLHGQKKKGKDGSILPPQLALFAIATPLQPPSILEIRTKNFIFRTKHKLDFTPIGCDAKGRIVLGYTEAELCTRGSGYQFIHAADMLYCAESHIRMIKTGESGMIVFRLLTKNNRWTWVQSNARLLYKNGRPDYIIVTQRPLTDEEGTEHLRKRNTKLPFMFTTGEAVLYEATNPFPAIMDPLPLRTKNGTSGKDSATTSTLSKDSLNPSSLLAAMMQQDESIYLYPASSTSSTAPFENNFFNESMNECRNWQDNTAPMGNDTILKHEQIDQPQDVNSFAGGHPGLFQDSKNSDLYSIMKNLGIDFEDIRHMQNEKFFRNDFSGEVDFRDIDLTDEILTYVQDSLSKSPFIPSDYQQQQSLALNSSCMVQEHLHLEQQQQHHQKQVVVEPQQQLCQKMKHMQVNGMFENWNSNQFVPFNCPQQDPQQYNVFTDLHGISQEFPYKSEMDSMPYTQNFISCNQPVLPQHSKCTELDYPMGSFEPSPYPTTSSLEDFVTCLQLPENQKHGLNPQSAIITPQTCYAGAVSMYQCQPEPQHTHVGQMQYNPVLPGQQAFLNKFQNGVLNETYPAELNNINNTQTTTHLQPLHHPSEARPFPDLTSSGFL
Method: (§1) Transactivation Assay in Human Cell Line (In Vitro Assays 1 and 2)
(§2) Transactivation assays were carried out in U87 glioblastoma cells (ATCC) endogenously expressing AHR. In addition the cells were stably transfected with an AHR inducible firefly luciferase reporter gene construct that carried AHR-binding sites (DRE) in its promoter and a renilla reporter gene construct with constitutively active promoter. Kynurenic acid is an endogenous AHR activating ligand and was used to prestimulate test cells prior to testing the antagonistic properties of compounds.
In Vitro Assay 2: Agonism in Human Cell Line
As positive activation control cells were incubated with 300 uM kynurenic acid. Normalization was done by positive and negative controls.

[2] = target: T1, AHR; test: In vitro assay 1: antagonism in human cell line (transactivation assay, U87 cells prestimulated with kynurenic acid, DRE firefly luciferase reporter); assay type: cell-based; parameters: host or cells: U87 glioblastoma cells, stably transfected with DRE firefly luciferase and renilla reporter constructs; conditions: 150 uM kynurenic acid, 20 hours, read-out: Assay 1: AHR-luc Hum Antagonism IC50
Method: as §1, §2
In Vitro Assay 1: Antagonism in Human Cell Line
Normalization was done by positive and negative controls.

SMILES	IC50 [1] [nM]	IC50 [2] [nM]
CC(NC(=O)c1cc(-c2ccc(Cl)cc2)nn(-c2cccnc2)c1=O)C(O)C(F)(F)F (single isomer, unassigned) [Example 297, 6-(4-Chlorophenyl)-3-oxo-2-(pyridin-3-yl)-N-(4,4,4-trifluoro-3-hydroxybutan-2-yl)-2,3-dihydropyridazine-4-carboxamide]	> 20000	1.49
CC(NC(=O)c1cc(-c2ccc(Cl)cc2)nn(-c2cccnc2)c1=O)C(O)C(F)(F)F (single isomer, unassigned) [Example 298, 6-(4-Chlorophenyl)-3-oxo-2-(pyridin-3-yl)-N-(4,4,4-trifluoro-3-hydroxybutan-2-yl)-2,3-dihydropyridazine-4-carboxamide]	> 20000	3.69
CC(NC(=O)c1cc(-c2ccc(Cl)cc2)nn(-c2cccnc2)c1=O)C(O)C(F)(F)F (single isomer, unassigned) [Example 299, 6-(4-Chlorophenyl)-3-oxo-2-(pyridin-3-yl)-N-(4,4,4-trifluoro-3-hydroxybutan-2-yl)-2,3-dihydropyridazine-4-carboxamide]	> 20000	13.3
Cn1cc(-n2nc(-c3ccc(OC(F)F)cc3)cc(C(=O)NC(C(C)(C)O)C(F)(F)F)c2=O)cn1 (single isomer, unassigned) [Example 306, 6-[4-(Difluoromethoxy)phenyl]-2-(1-methyl-1H-pyrazol-4-yl)-3-oxo-N-(1,1,1-trifluoro-3-hydroxy-3-methylbutan-2-yl)-2,3-dihydropyridazine-4-carboxamide]	> 20000	1.33
Cn1cc(-n2nc(-c3ccc(OC(F)F)cc3)cc(C(=O)NC(C(C)(C)O)C(F)(F)F)c2=O)cn1 (single isomer, unassigned) [Example 307, 6-[4-(Difluoromethoxy)phenyl]-2-(1-methyl-1H-pyrazol-4-yl)-3-oxo-N-(1,1,1-trifluoro-3-hydroxy-3-methylbutan-2-yl)-2,3-dihydropyridazine-4-carboxamide]	> 20000	73.9
O=C(N[C@@H]1COC[C@@H]1O)c1cc(-c2ccc(C(F)F)cc2)nn(-c2cccnc2)c1=O (single isomer, unassigned) [Example 318, 6-[4-(Difluoromethyl)phenyl]-N-[(cis)-4-hydroxy-tetrahydrofuran-3-yl]-3-oxo-2-(pyridin-3-yl)-2,3-dihydropyridazine-4-carboxamide]	> 20000	32
Cn1cc(-n2nc(-c3ccc(C(F)F)cc3)cc(C(=O)N[C@@H]3COC[C@@H]3O)c2=O)cn1 (single isomer, unassigned) [Example 320, 6-[4-(Difluoromethyl)phenyl]-N-[(cis)-4-hydroxytetrahydrofuran-3-yl]-2-(1-methyl-1H-pyrazol-4-yl)-3-oxo-2,3-dihydropyridazine-4-carboxamide]	> 20000	44.1
C[C@]1(O)CCC[C@H]1NC(=O)c1cc(-c2ccc(OC(F)(F)F)cc2)nn(-c2cccnc2)c1=O (single isomer, unassigned) [Example 329, N-[(cis)-2-hydroxy-2-methylcyclopentyl]-3-oxo-2-(pyridin-3-yl)-6-[4-(trifluoromethoxy)phenyl]-2,3-dihydropyridazine-4-carboxamide]	> 20000	29.4
C[C@]1(O)CCC[C@H]1NC(=O)c1cc(-c2ccc(OC(F)(F)F)cc2)nn(-c2cccnc2)c1=O (single isomer, unassigned) [Example 330, N-[(cis)-2-hydroxy-2-methylcyclopentyl]-3-oxo-2-(pyridin-3-yl)-6-[4-(trifluoromethoxy)phenyl]-2,3-dihydropyridazine-4-carboxamide]	> 20000	92.7
Cn1cc(-n2nc(-c3ccc(Cl)cc3)cc(C(=O)N[C@@H]3CCC[C@]3(C)O)c2=O)cn1 (single isomer, unassigned) [Example 335, 6-(4-Chlorophenyl)-N-[(cis)-2-hydroxy-2-methylcyclopentyl]-2-(1-methyl-1H-pyrazol-4-yl)-3-oxo-2,3-dihydropyridazine-4-carboxamide]	> 20000	11.3
Cn1cc(-n2nc(-c3ccc(Cl)cc3)cc(C(=O)N[C@@H]3CCC[C@]3(C)O)c2=O)cn1 (single isomer, unassigned) [Example 336, 6-(4-Chlorophenyl)-N-[(cis)-2-hydroxy-2-methylcyclopentyl]-2-(1-methyl-1H-pyrazol-4-yl)-3-oxo-2,3-dihydropyridazine-4-carboxamide]	> 20000	42.9
COCC(O)CNC(=O)c1cc(-c2ccc(Cl)cc2)nn(-c2cnn(C)c2)c1=O (single isomer, unassigned; (+)) [Example 26, (+)-6-(4-Chlorophenyl)-N-(2-hydroxy-3-methoxypropyl)-2-(1-methyl-1H-pyrazol-4-yl)-3-oxo-2,3-dihydropyridazine-4-carboxamide]	> 20000	87.5
O=C(NC(CO)C1CC1)c1cc(-c2ccc(Cl)cc2)nn(-c2cccnc2)c1=O (single isomer, unassigned; (+)) [Example 91, (+)-6-(4-Chlorophenyl)-N-(1-cyclopropyl-2-hydroxyethyl)-3-oxo-2-(pyridin-3-yl)-2,3-dihydropyridazine-4-carboxamide]	> 20000	48.1
CC(C)(O)C(NC(=O)c1cc(-c2ccc(C(F)(F)F)cc2)nn(-c2cccnc2)c1=O)C(F)(F)F (single isomer, unassigned; (+)) [Example 197, (+)-3-Oxo-2-(pyridin-3-yl)-N-(1,1,1-trifluoro-3-hydroxy-3-methylbutan-2-yl)-6-[4-(trifluoromethyl)phenyl]-2,3-dihydropyridazine-4-carboxamide]	> 20000	0.502
O=C(NCC(O)C(F)F)c1cc(-c2ccc(C(F)(F)F)cc2)nn(-c2cccnc2)c1=O (single isomer, unassigned; (+)) [Example 247, (+)-N-(3,3-Difluoro-2-hydroxypropyl)-3-oxo-2-(pyridin-3-yl)-6-[4-(trifluoromethyl)phenyl]-2,3-dihydropyridazine-4-carboxamide]	> 20000	13.9
Cn1cc(-n2nc(-c3ccc(OC(F)(F)F)cc3)cc(C(=O)N[C@@H]3COC[C@@H]3O)c2=O)cn1 (single isomer, unassigned; enantiomer 1) [Example 56, N-[(cis)-4-Hydroxytetrahydrofuran-3-yl]-2-(1-methyl-1H-pyrazol-4-yl)-3-oxo-6-[4-(trifluoromethoxy)phenyl]-2,3-dihydropyridazine-4-carboxamide, Enantiomer 1]	> 20000	25.6
Cn1cc(-n2nc(-c3ccc(OC(F)(F)F)cc3)cc(C(=O)N[C@@H]3COC[C@H]3O)c2=O)cn1 (single isomer, unassigned; enantiomer 1) [Example 64, N-[(trans)-4-Hydroxytetrahydrofuran-3-yl]-2-(1-methyl-1H-pyrazol-4-yl)-3-oxo-6-[4-(trifluoromethoxy)phenyl]-2,3-dihydropyridazine-4-carboxamide, Enantiomer 1]	> 20000	81.6
CC(C)(O)C(NC(=O)c1cc(-c2ccc(Cl)cc2)nn(-c2cccnc2)c1=O)C(F)(F)F (single isomer, unassigned; enantiomer 1) [Example 122, 6-(4-Chlorophenyl)-3-oxo-2-(pyridin-3-yl)-N-(1,1,1-trifluoro-3-hydroxy-3-methylbutan-2-yl)-2,3-dihydropyridazine-4-carboxamide, Enantiomer 1]	> 20000	26.5
CC(C)(O)C(NC(=O)c1cc(-c2ccc(OC(F)(F)F)cc2)nn(-c2cccnc2)c1=O)C(F)(F)F (single isomer, unassigned; enantiomer 1) [Example 136, 3-Oxo-2-(pyridin-3-yl)-N-[1,1,1-trifluoro-3-hydroxy-3-methylbutan-2-yl]-6-[4-(trifluoromethoxy)phenyl]-2,3-dihydropyridazine-4-carboxamide, Enantiomer 1]	> 20000	60.4

From US12522594B2, “2-heteroaryl-3-oxo-2,3-dihydropyridazine-4-carboxamides for the treatment of cancer” (Deutsches Krebsforschungszentrum, priority 2017, dated 2026)
